Experimental data reported in US11839683B2, “Method of rapidly achieving therapeutic concentrations of triptans for treatment of migraines” (EMERGEX USA CORPORATION, priority 2016, dated 2023).
Read-outs that look alike come from different tables or passages of the source. Blank lines part the entries; values can stand above or below the molecule they belong to.

How the values were obtained:
clinical = settings: human, in vivo
Description: The final treatment administered was 3.8 mg on a 10 cm^2 patch using an applicator with 0.52 Joule of application energy in the intracutaneous microneedle system described herein. The products tested were:
(§1) This was a single-center, open-label, randomized five-way crossover study (Part 1) followed by a sequential study of two additional treatments (Parts 2 and 3). After obtaining informed consent and establishing eligibility, each subject received each of the seven study treatments once, followed by in-clinic monitoring and extensive blood sample collection for pharmacokinetic analysis. […] Plasma samples from the initial dosing days were sent to the analytical laboratory for analysis, and tolerability for each of the dose levels was summarized. […] During Part 3, subjects received a single 3.8 mg patch (applied with a 0.52 J applicator) and also completed identical procedures to the previous dosing days. After completion of the seven dosing days, subjects were assessed one final time and dismissed from the study.
Twenty subjects were enrolled in the study, 10 males and 10 females. The subjects mean age was 29 years±3.5 years with a mean BMI of 24.4±3.5.
(§2) PK parameters were summarized by treatment group using descriptive statistics (arithmetic means, standard deviations, coefficients of variation, sample size, minimum, maximum, and median).
Graphs of apparent dose linearity and proportionality of PK parameters (AUCt, AUCinf and Cmax) were compiled.

migraine = settings: cited from earlier work
[1] = in vivo
Excerpt: as §1, §2

[2] = cited from earlier work
[3] = TABLET 2.5 mg, 1 hour, Bomhof et al, 1999
[4] = TABLET 2.5 mg, 2 hour, Bomhof et al, 1999
[5] = TABLET 100 mg, 1 hour, Tfelt-Hansen et al, 1998
[6] = TABLET 100 mg, 2 hour, Tfelt-Hansen et al, 1998
[7] = TABLET 10 mg, 1 hour, Tfelt-Hansen et al, 1998
[8] = TABLET 10 mg, 2 hour, Tfelt-Hansen et al, 1998
[9] = WAFER 5 mg, 1 hour, Ahrens et al, 1999
[10] = WAFER 5 mg, 2 hour, Ahrens et al, 1999
[11] = WAFER 10 mg, 1 hour, Ahrens et al, 1999
[12] = WAFER 10 mg, 2 hour, Ahrens et al, 1999
[13] = TABLET 80 mg, 1 hour, Sheftell et al 2003
[14] = TABLET 80 mg, 2 hour, Sheftell et al 2003
[15] = TABLET 80 mg, 4 hour, Sheftell et al 2003

- AUC0-last/Dose (clinical; po, 2.5 mg): 8.6
- Tmax Med (Range) (clinical; po, 2.5 mg): 60 (30-240)
Compound: CN(C)CCc1c[nH]c2ccc(C[C@H]3COC(=O)N3)cc12 [Oral Zolmi]

Compound: CNS(=O)(=O)CCc1ccc2[nH]cc(C3CCN(C)CC3)c2c1 [naratriptan]
- % PAIN FREE (migraine; [3]): 3.3%
- % PAIN RELIEF (migraine; [3]): 27.7%
- % PAIN FREE (migraine; [4]): 20.7%
- % PAIN RELIEF (migraine; [4]): 48.4%
- pain freedom at 2 hours (migraine; lowest oral dose): 18%
- pain relief at 2 hours (migraine; lowest oral dose): 49%

Compound: CNCCc1c[nH]c2ccc(C[C@H]3COC(=O)N3)cc12 [N-desmethyl zolmitriptan]
- Mean AUCinf of N-desmethyl metabolite ([1]; human): 14.55 ng·H/mL
- Mean Cmax of N-desmethyl metabolite ([1]; human): 2.08 ng/mL
- Tmax of N-desmethyl metabolite ([1]; human): 54.7 to 65.0 min
- Mean AUCinf of N-desmethyl metabolite ([1]; human, 0.48 mg): 1.38 ng·H/mL
- Mean Cmax of N-desmethyl metabolite ([1]; human, 0.48 mg): 0.22 ng/mL
- Mean AUCinf of N-desmethyl metabolite ([1]; human, 3.8 mg): 8.17 ng·H/mL
- Mean Cmax of N-desmethyl metabolite ([1]; human, 3.8 mg): 1.77 ng/mL
- elimination half life (t1/2) of the metabolite ([1]; human, po): 2.7-3.31 H
- time to peak plasma concentration of the N-desmethyl metabolite [1]: around 1 hour
- time to peak plasma concentration of the N-desmethyl metabolite ([1]; po): 2.7 h

Compound: CN[C@@H]1CCc2[nH]c3ccc(C(N)=O)cc3c2C1 [frovatriptan]
- efficacy in 2-hour response, 2-hour pain free compared to the other triptans (migraine; oral): lowest efficacy

Compound: CNS(=O)(=O)Cc1ccc2[nH]cc(CCN(C)C)c2c1 [Sumatriptan, sumatriptan]
- Tmax after oral tablet administration ([2]; oral tablet): about 2 hours
- bioavailability, oral administration (as a succinate) ([2]; oral): about 15%
- Tmax achieved earlier than the conventional tablet ([2]; rapid-release tablet formulation, on average): 10 to 15 min
- % PAIN FREE (migraine; [5]): 7.8%
- % PAIN RELIEF (migraine; [5]): 27.9%
- % PAIN FREE (migraine; [6]): 32.8%
- % PAIN RELIEF (migraine; [6]): 61.8%

- Tmax Med (Range) (clinical; sc, 6 mg): 10 (5-20)
Compound: CNS(=O)(=O)Cc1ccc2[nH]cc(CCN(C)C)c2c1 [SC Suma]

Compound: CN(C)CCc1c[nH]c2ccc(Cn3cncn3)cc12 [Rizatriptan]
- % PAIN FREE (migraine; [7]): 10.4%
- % PAIN RELIEF (migraine; [7]): 36.6%
- % PAIN FREE (migraine; [8]): 40.3%
- % PAIN RELIEF (migraine; [8]): 67.0%
- % PAIN FREE (migraine; [9]): 7.7%
- % PAIN RELIEF (migraine; [9]): 39.8%
- % PAIN FREE (migraine; [10]): 34.8%
- % PAIN RELIEF (migraine; [10]): 58.6%
- % PAIN FREE (migraine; [11]): 13.0%
- % PAIN RELIEF (migraine; [11]): 44.9%
- % PAIN FREE (migraine; [12]): 42.2%
- % PAIN RELIEF (migraine; [12]): 74.1%

Compound: CN1CCC[C@@H]1Cc1c[nH]c2ccc(CCS(=O)(=O)c3ccccc3)cc12 [Eletriptan]
- % PAIN FREE (migraine; [13]): 10.0%
- % PAIN RELIEF (migraine; [13]): 32.0%
- % PAIN FREE (migraine; [14]): 27.0%
- % PAIN RELIEF (migraine; [14]): 59.0%
- % PAIN FREE (migraine; [15]): 49.0%
- % PAIN RELIEF (migraine; [15]): 79.0%
